Results as given in the supplement of paper PMC11451515.

Tested on: SEM cells
Assay: cell viability relative to DMSO control; higher = less cytotoxic
Conditions: 48 h
How it was run: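 Before seeding, each leukemia line was adapted for at least four passages in each medium. NOMO1 or SEM cells (500 cells/well) and P12-Ichikawa cells (1000 cells/well) went into 1536-well plates at 5 μl, then received library compounds in DMSO by pin dosing across 11 threefold concentrations, 47 μM to 0.79 nM. Readout was CellTiter-Glo One luminescence after 48 h at 37°C, and viability is given as a per-plate percentage of DMSO wells, with cell-free wells as background.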

[1] = HPLM + 10% dialyzed FBS, 0.000781 µM
[2] = HPLM + 10% dialyzed FBS, 0.00234 µM
[3] = HPLM + 10% dialyzed FBS, 0.00702 µM
[4] = HPLM + 10% dialyzed FBS, 0.0211 µM
[5] = HPLM + 10% dialyzed FBS, 0.0632 µM
[6] = HPLM + 10% dialyzed FBS, 0.19 µM
[7] = HPLM + 10% dialyzed FBS, 0.569 µM
[8] = HPLM + 10% dialyzed FBS, 1.71 µM
[9] = HPLM + 10% dialyzed FBS, 5.12 µM
[10] = HPLM + 10% dialyzed FBS, 15.4 µM
[11] = HPLM + 10% dialyzed FBS, 46.1 µM
[12] = RPMI 5 mM glucose + 10% FBS, 0.000781 µM
[13] = RPMI 5 mM glucose + 10% FBS, 0.00234 µM
[14] = RPMI 5 mM glucose + 10% FBS, 0.00702 µM
[15] = RPMI 5 mM glucose + 10% FBS, 0.0211 µM
[16] = RPMI 5 mM glucose + 10% FBS, 0.0632 µM
[17] = RPMI 5 mM glucose + 10% FBS, 0.19 µM
[18] = RPMI 5 mM glucose + 10% FBS, 0.569 µM
[19] = RPMI 5 mM glucose + 10% FBS, 1.71 µM
[20] = RPMI 5 mM glucose + 10% FBS, 5.12 µM
[21] = RPMI 5 mM glucose + 10% FBS, 15.4 µM
[22] = RPMI 5 mM glucose + 10% FBS, 46.1 µM
[23] = RPMI 5 mM glucose + 10% dialyzed FBS, 0.000781 µM
[24] = RPMI 5 mM glucose + 10% dialyzed FBS, 0.00234 µM
[25] = RPMI 5 mM glucose + 10% dialyzed FBS, 0.00702 µM
[26] = RPMI 5 mM glucose + 10% dialyzed FBS, 0.0211 µM
[27] = RPMI 5 mM glucose + 10% dialyzed FBS, 0.0632 µM
[28] = RPMI 5 mM glucose + 10% dialyzed FBS, 0.19 µM
[29] = RPMI 5 mM glucose + 10% dialyzed FBS, 0.569 µM
[30] = RPMI 5 mM glucose + 10% dialyzed FBS, 1.71 µM
[31] = RPMI 5 mM glucose + 10% dialyzed FBS, 5.12 µM
[32] = RPMI 5 mM glucose + 10% dialyzed FBS, 15.4 µM
[33] = RPMI 5 mM glucose + 10% dialyzed FBS, 46.1 µM

| SMILES | cell viability [1] [%] | cell viability [2] [%] | cell viability [3] [%] | cell viability [4] [%] | cell viability [5] [%] | cell viability [6] [%] | cell viability [7] [%] | cell viability [8] [%] | cell viability [9] [%] | cell viability [10] [%] | cell viability [11] [%] | cell viability [12] [%] | cell viability [13] [%] | cell viability [14] [%] | cell viability [15] [%] | cell viability [16] [%] | cell viability [17] [%] | cell viability [18] [%] | cell viability [19] [%] | cell viability [20] [%] | cell viability [21] [%] | cell viability [22] [%] | cell viability [23] [%] | cell viability [24] [%] | cell viability [25] [%] | cell viability [26] [%] | cell viability [27] [%] | cell viability [28] [%] | cell viability [29] [%] | cell viability [30] [%] | cell viability [31] [%] | cell viability [32] [%] | cell viability [33] [%] |
| --- | --- | --- | --- | --- | --- | --- | --- | --- | --- | --- | --- | --- | --- | --- | --- | --- | --- | --- | --- | --- | --- | --- | --- | --- | --- | --- | --- | --- | --- | --- | --- | --- | --- |
| O=C(O)CCCCC(CCSCc1ccccc1)SCc1ccccc1 (stereo not drawn) | 87.7 | 116 | 111 | 110 | 104 | 115 | 113 | 131 | 111 | 119 | 102 | 106 | 102 | 91.5 | 101 | 118 | 124 | 110 | 121 | 115 | 107 | 99.6 | 100 | 106 | 121 | 138 | 116 | 117 | 108 | 125 | 117 | 108 | 93.5 |
| CCc1cc(C(N)=S)ccn1 | 80.7 | 81.5 | 88 | 86.3 | 91.5 | 92.3 | 90.8 | 89.8 | 91.2 | 54.7 | 84.7 | 112 | 103 | 98.1 | 108 | 104 | 107 | 102 | 97.8 | 88.4 | 36.1 | 68.7 | 94.9 | 99.1 | 89.8 | 106 | 101 | 116 | 102 | 94.5 | 100 | 53.9 | 64.2 |
| CCn1c(-c2nonc2N)nc2c(C#CC(C)(C)O)ncc(OC[C@H]3CCCNC3)c21 | 78.7 | 83.1 | 87.2 | 86.4 | 75.2 | 82.7 | 76.9 | 66.2 | 70.3 | 43 | 10.5 | 104 | 96.6 | 107 | 94.1 | 75.7 | 99.2 | 96.4 | 64.9 | 77.7 | 60 | 14.8 | 85.8 | 85.2 | 95.8 | 75.7 | 68.6 | 97.1 | 90.7 | 53.9 | 62.8 | 43.6 | 14.1 |
| NC[C@@H]1O[C@H](O[C@H]2[C@@H](O)[C@H](O[C@@H]3[C@@H](O)[C@H](N)C[C@H](N)[C@H]3O[C@H]3O[C@H](CN)[C@@H](O)[C@H](O)[C@H]3N)O[C@@H]2CO)[C@H](N)[C@@H](O)[C@@H]1O.O=S(=O)(O)O.O=S(=O)(O)O.O=S(=O)(O)O | 104 | 99.7 | 103 | 106 | 98.4 | 99.4 | 104 | 91 | 98.7 | 105 | 106 | 92.9 | 105 | 110 | 98.8 | 69.1 | 101 | 101 | 102 | 104 | 94 | 105 | 109 | 115 | 116 | 113 | 90.7 | 104 | 115 | 105 | 108 | 105 | 100 |
| O=C(CCCCCCC(=O)Nc1cccnc1)NO | 78.3 | 106 | 96.7 | 97.2 | 114 | 104 | 108 | 88.5 | 76.8 | 17.6 | 6.38 | 101 | 105 | 102 | 106 | 101 | 115 | 97.5 | 77.2 | 81.7 | 11.9 | 5.78 | 87.8 | 93.6 | 89.2 | 101 | 95.5 | 99 | 105 | 81.9 | 64 | 13.5 | 6.39 |
| CC[C@]12CC[C@H]3[C@@H](CCC/4=C/C(=O)CC[C@H]34)[C@@H]1CC[C@@]2(O)C#C | 93.7 | 79.6 | 97.7 | 92.4 | 103 | 83.1 | 87.8 | 77.9 | 83.6 | 80.9 | 82.8 | 85.7 | 102 | 102 | 109 | 108 | 85.2 | 86.9 | 86.5 | 97.9 | 87.4 | 96.5 | 103 | 90.3 | 81.9 | 102 | 101 | 96.8 | 101 | 114 | 94.8 | 111 | 105 |
| C[C@@H]1CCN(C(=O)CC#N)C[C@@H]1N(C)c1ncnc2[nH]ccc12 | 85 | 92.5 | 81.5 | 85.7 | 91 | 77.4 | 67.4 | 80 | 67 | 73.1 | 78.6 | 96.6 | 99.5 | 79.5 | 97.4 | 103 | 104 | 99.3 | 98.5 | 80 | 90.7 | 95.3 | 112 | 104 | 77.5 | 109 | 105 | 92.4 | 82.1 | 94 | 57.9 | 83.5 | 88.4 |
| CCC(C)N1\N=C/N(C1=O)C2=CC=C(C=C2)N3CCN(CC3)C4=CC=C(OC[C@H]5CO[C@@](C[N]6C=NC=N6)(O5)C7=CC=C(Cl)C=C7Cl)C=C4 (stereo partly drawn) | 94.1 | 106 | 119 | 116 | 119 | 124 | 105 | 122 | 120 | 112 | 107 |  |  |  |  |  |  |  |  |  |  |  | 78.4 | 116 | 115 | 116 | 113 | 98.6 | 109 | 115 | 115 | 117 | 105 |
